In paper PMC7156458, “Synthetic biology based construction of biological activity-related library of fungal decalin-containing diterpenoid pyrones” (Nature Communications, 2020):

Molecular target: Aβ42 (Homo sapiens, UniProt P05067)
Experiment: Th-T (thioflavin-T) assay of Aβ42 aggregation
Format: biochemical
Conditions: for Th-T assay plate reading, mean of three wells (Supplementary Fig. 47): source data, Ab alone and No Ab as controls

Sequence of Aβ42 (P05067 672-713): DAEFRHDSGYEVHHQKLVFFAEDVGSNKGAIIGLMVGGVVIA

Th-T fluorescence, mean of three wells (Aβ42 aggregation time course, reading M117): 3.027
Th-T fluorescence, mean of three wells (Aβ42 aggregation time course, reading M118): 3.005
Th-T fluorescence, mean of three wells (Aβ42 aggregation time course, reading M119): 3.036
Th-T fluorescence, mean of three wells (Aβ42 aggregation time course, reading M120): 3.024
Th-T fluorescence, mean of three wells (Aβ42 aggregation time course, reading M121): 3.009
Th-T fluorescence, mean of three wells (Aβ42 aggregation time course, reading M122): 2.9814
Th-T fluorescence, mean of three wells (Aβ42 aggregation time course, reading M123): 3.007
Th-T fluorescence, mean of three wells (Aβ42 aggregation time course, reading M124): 3.01
Th-T fluorescence, mean of three wells (Aβ42 aggregation time course, reading M125): 2.994
Th-T fluorescence, mean of three wells (Aβ42 aggregation time course, reading M126): 2.985
Th-T fluorescence, mean of three wells (Aβ42 aggregation time course, reading M127): 3.018
Th-T fluorescence, mean of three wells (Aβ42 aggregation time course, reading M128): 2.986
Th-T fluorescence, mean of three wells (Aβ42 aggregation time course, reading M129): 2.997
Th-T fluorescence, mean of three wells (Aβ42 aggregation time course, reading M130): 3.004
Th-T fluorescence, mean of three wells (Aβ42 aggregation time course, reading M131): 2.988
Th-T fluorescence, mean of three wells (Aβ42 aggregation time course, reading M132): 2.974
Th-T fluorescence, mean of three wells (Aβ42 aggregation time course, reading M133): 2.995
Th-T fluorescence, mean of three wells (Aβ42 aggregation time course, reading M134): 2.998
Th-T fluorescence, mean of three wells (Aβ42 aggregation time course, reading M135): 3.001
Th-T fluorescence, mean of three wells (Aβ42 aggregation time course, reading M136): 2.985
Th-T fluorescence, mean of three wells (Supplementary Fig. 47, reading M137): 2.995
Th-T fluorescence, mean of three wells (Supplementary Fig. 47, reading M138): 2.975
Th-T fluorescence, mean of three wells (Supplementary Fig. 47, reading M139): 2.9735
Th-T fluorescence, mean of three wells (Supplementary Fig. 47, reading M140): 2.981
Th-T fluorescence, mean of three wells (Supplementary Fig. 47, reading M141): 2.969
Th-T fluorescence, mean of three wells (Supplementary Fig. 47, reading M142): 2.937
Th-T fluorescence, mean of three wells (Supplementary Fig. 47, reading M143): 3.01
Th-T fluorescence, mean of three wells (Supplementary Fig. 47, reading M144): 2.949
Th-T fluorescence, mean of three wells (Supplementary Fig. 47, reading M145): 2.953
Th-T fluorescence, mean of three wells (Supplementary Fig. 47 source data, measurement M37 of time course): 3.026
Th-T fluorescence, mean of three wells (Supplementary Fig. 47 source data, measurement M38 of time course): 3.058
Th-T fluorescence, mean of three wells (Supplementary Fig. 47 source data, measurement M39 of time course): 3.066
Th-T fluorescence, mean of three wells (Supplementary Fig. 47 source data, measurement M40 of time course): 3.0688
Th-T fluorescence, mean of three wells (Supplementary Fig. 47 source data, measurement M41 of time course): 3.079
Th-T fluorescence, mean of three wells (Supplementary Fig. 47 source data, measurement M42 of time course): 3.094
Th-T fluorescence, mean of three wells (Supplementary Fig. 47 source data, measurement M43 of time course): 3.089
Th-T fluorescence, mean of three wells (Supplementary Fig. 47 source data, measurement M44 of time course): 3.087
Th-T fluorescence, mean of three wells (Supplementary Fig. 47 source data, measurement M45 of time course): 3.107
Th-T fluorescence, mean of three wells (Supplementary Fig. 47 source data, measurement M46 of time course): 3.104
Th-T fluorescence, mean of three wells (Supplementary Fig. 47 source data, measurement M47 of time course): 3.097
Th-T fluorescence, mean of three wells (Supplementary Fig. 47 source data, measurement M48 of time course): 3.099
Th-T fluorescence, mean of three wells (Supplementary Fig. 47 source data, measurement M49 of time course): 3.124
Th-T fluorescence, mean of three wells (Supplementary Fig. 47 source data, measurement M50 of time course): 3.143
Th-T fluorescence, mean of three wells (Supplementary Fig. 47 source data, measurement M51 of time course): 3.109
Th-T fluorescence, mean of three wells (Supplementary Fig. 47 source data, measurement M52 of time course): 3.12
Th-T fluorescence, mean of three wells (Supplementary Fig. 47 source data, measurement M53 of time course): 3.131
Th-T fluorescence, mean of three wells (Supplementary Fig. 47 source data, measurement M54 of time course): 3.122
Th-T fluorescence, mean of three wells (Supplementary Fig. 47 source data, measurement M55 of time course): 3.1161
Th-T fluorescence, mean of three wells (Supplementary Fig. 47 source data, measurement M56 of time course): 3.112
Th-T assay plate reading, mean of three wells (Supplementary Fig. 47) (measurement M1): 0.2982
Th-T assay plate reading, mean of three wells (Supplementary Fig. 47) (measurement M2): 0.2966
Th-T assay plate reading, mean of three wells (Supplementary Fig. 47) (measurement M3): 0.3112
Th-T assay plate reading, mean of three wells (Supplementary Fig. 47) (measurement M4): 0.3288
Th-T assay plate reading, mean of three wells (Supplementary Fig. 47) (measurement M5): 0.3791
Th-T assay plate reading, mean of three wells (Supplementary Fig. 47) (measurement M6): 0.4184
Th-T assay plate reading, mean of three wells (Supplementary Fig. 47) (measurement M7): 0.4946
Th-T assay plate reading, mean of three wells (Supplementary Fig. 47) (measurement M8): 0.5732
Th-T assay plate reading, mean of three wells (Supplementary Fig. 47) (measurement M9): 0.6554
Th-T assay plate reading, mean of three wells (Supplementary Fig. 47) (measurement M10): 0.6998
Th-T assay plate reading, mean of three wells (Supplementary Fig. 47) (measurement M11): 0.7388
Th-T assay plate reading, mean of three wells (Supplementary Fig. 47) (measurement M12): 0.7839
Th-T assay plate reading, mean of three wells (Supplementary Fig. 47) (measurement M13): 0.8524
Th-T assay plate reading, mean of three wells (Supplementary Fig. 47) (measurement M14): 1.025
Th-T assay plate reading, mean of three wells (Supplementary Fig. 47) (measurement M15): 1.367
Th-T assay plate reading, mean of three wells (Supplementary Fig. 47) (measurement M16): 1.777
Th-T fluorescence, mean of three wells (reading M17, Supplementary Fig. 47 source data): 2.114
Th-T fluorescence, mean of three wells (reading M18, Supplementary Fig. 47 source data): 2.387
Th-T fluorescence, mean of three wells (reading M19, Supplementary Fig. 47 source data): 2.598
Th-T fluorescence, mean of three wells (reading M20, Supplementary Fig. 47 source data): 2.677
Th-T fluorescence, mean of three wells (reading M21, Supplementary Fig. 47 source data): 2.685
Th-T fluorescence, mean of three wells (reading M22, Supplementary Fig. 47 source data): 2.669
Th-T fluorescence, mean of three wells (reading M23, Supplementary Fig. 47 source data): 2.723
Th-T fluorescence, mean of three wells (reading M24, Supplementary Fig. 47 source data): 2.7479
Th-T fluorescence, mean of three wells (reading M25, Supplementary Fig. 47 source data): 2.777
Th-T fluorescence, mean of three wells (reading M26, Supplementary Fig. 47 source data): 2.823
Th-T fluorescence, mean of three wells (reading M27, Supplementary Fig. 47 source data): 2.858
Th-T fluorescence, mean of three wells (reading M28, Supplementary Fig. 47 source data): 2.868
Th-T fluorescence, mean of three wells (reading M29, Supplementary Fig. 47 source data): 2.914
Th-T fluorescence, mean of three wells (reading M30, Supplementary Fig. 47 source data): 2.924
Th-T fluorescence, mean of three wells (reading M31, Supplementary Fig. 47 source data): 2.961
Th-T fluorescence, mean of three wells (reading M32, Supplementary Fig. 47 source data): 2.958
Th-T fluorescence, mean of three wells (reading M33, Supplementary Fig. 47 source data): 2.966
Th-T fluorescence, mean of three wells (reading M34, Supplementary Fig. 47 source data): 3.0036
Th-T fluorescence, mean of three wells (reading M35, Supplementary Fig. 47 source data): 3.001
Th-T fluorescence, mean of three wells (reading M36, Supplementary Fig. 47 source data): 3.031
Th-T fluorescence, mean of three wells (time course, reading M57): 3.145
Th-T fluorescence, mean of three wells (time course, reading M58): 3.098
Th-T fluorescence, mean of three wells (time course, reading M59): 3.0965
Th-T fluorescence, mean of three wells (time course, reading M60): 3.12
Th-T fluorescence, mean of three wells (time course, reading M61): 3.114
Th-T fluorescence, mean of three wells (time course, reading M62): 3.124
Th-T fluorescence, mean of three wells (time course, reading M63): 3.121
Th-T fluorescence, mean of three wells (time course, reading M64): 3.089
Th-T fluorescence, mean of three wells (time course, reading M65): 3.1417
Th-T fluorescence, mean of three wells (time course, reading M66): 3.124
Th-T fluorescence, mean of three wells (time course, reading M67): 3.125
Th-T fluorescence, mean of three wells (time-course reading M97, Supplementary Fig. 47 source data): 3.037
Th-T fluorescence, mean of three wells (time-course reading M98, Supplementary Fig. 47 source data): 3.037
Th-T fluorescence, mean of three wells (time-course reading M99, Supplementary Fig. 47 source data): 3.05
Th-T fluorescence, mean of three wells (time-course reading M100, Supplementary Fig. 47 source data): 3.074
Th-T fluorescence, mean of three wells (time-course reading M101, Supplementary Fig. 47 source data): 3.025
Th-T fluorescence, mean of three wells (time-course reading M102, Supplementary Fig. 47 source data): 3.036
Th-T fluorescence, mean of three wells (time-course reading M103, Supplementary Fig. 47 source data): 3.034
Th-T fluorescence, mean of three wells (time-course reading M104, Supplementary Fig. 47 source data): 3.0181
Th-T fluorescence, mean of three wells (time-course reading M105, Supplementary Fig. 47 source data): 3.041
Th-T fluorescence, mean of three wells (time-course reading M106, Supplementary Fig. 47 source data): 3.028
Th-T fluorescence, mean of three wells (time-course reading M107, Supplementary Fig. 47 source data): 3.025
Th-T fluorescence, mean of three wells (time-course reading M108, Supplementary Fig. 47 source data): 3.028
Th-T fluorescence, mean of three wells (time-course reading M109, Supplementary Fig. 47 source data): 3.032
Th-T fluorescence, mean of three wells (time-course reading M110, Supplementary Fig. 47 source data): 3.022
Th-T fluorescence, mean of three wells (time-course reading M111, Supplementary Fig. 47 source data): 3.062
Th-T fluorescence, mean of three wells (time-course reading M112, Supplementary Fig. 47 source data): 3.021
Th-T fluorescence, mean of three wells (time-course reading M113, Supplementary Fig. 47 source data): 3.021
Th-T fluorescence, mean of three wells (time-course reading M114, Supplementary Fig. 47 source data): 3.0544
Th-T fluorescence, mean of three wells (time-course reading M115, Supplementary Fig. 47 source data): 3.028
Th-T fluorescence, mean of three wells (time-course reading M116, Supplementary Fig. 47 source data): 3.017
Compound: C=C1CC[C@@H]2[C@](C)(CC[C@H]3O[C@H](C=C(C)C)C[C@@]23C)[C@@H]1Cc1c(O)c(C)c(C)oc1=O [Compound 10, higginsianin A]
